# Measured values: ChEMBL document CHEMBL1201862, “PubChem BioAssay data set” (2004)
#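 A five-concentration, 48-hour dose response in 96-well plates underlies each endpoint, interpolated linearly between surrounding concentrations. GI50 = concentration required for 50% inhibition of growth.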 Activity calls are given as the source filed them. Cut-off read from the data, not from the text of the source: active = GI50 up to about 1.1 µM and inactive = higher.
# Experiments:
# Test in all cases: inhibition of tumour cell growth, NCI panel, 48 h
# HCT-15 = system: HCT-15
# Malme-3M = system: Malme-3M
# M19-MEL = system: M19-MEL
# EKVX = system: EKVX
# HOP-18 = system: HOP-18
# SNB-75 = system: SNB-75
# NCI-H522 = system: NCI-H522
# ACHN = system: ACHN
# UACC-62 = system: UACC-62
# 786-0 = system: 786-0
# NCI-H226 = system: NCI-H226
# SK-MEL-5 = system: SK-MEL-5
# HOP-62 = system: HOP-62
# HCT-116 = system: HCT-116
# DMS-114 = system: DMS-114
# IGROV-1 = system: IGROV-1
# SN12C = system: SN12C
# SF-539 = system: SF-539
# COLO 205 = system: COLO 205
# KM12 = system: KM12
# NCI-H23 = system: NCI-H23
# UO-31 = system: UO-31
# HT-29 = system: HT-29
# OVCAR-8 = system: OVCAR-8
# SNB-78 = system: SNB-78
# DMS-273 = system: DMS-273
# RPMI-8226 = system: RPMI-8226
# MOLT-4 = system: MOLT-4
# A498 = system: A498
# HOP-92 = system: HOP-92
# A549 = system: A549
# DLD-1 = system: DLD-1
# SF-268 = system: SF-268
# SK-MEL-28 = system: SK-MEL-28
# SF-295 = system: SF-295
# OVCAR-4 = system: OVCAR-4
# CCRF-CEM = system: CCRF-CEM
# NCI-H460 = system: NCI-H460
# M14 = system: M14
# HL-60 = system: HL-60
# KM-20L2 = system: KM-20L2
# SNB-19 = system: SNB-19
# OVCAR-3 = system: OVCAR-3
# LXFL 529 = system: LXFL 529
# U-251 = system: U-251
# HCC 2998 = system: HCC 2998
# TK-10 = system: TK-10
# UACC-257 = system: UACC-257
# SK-OV-3 = system: SK-OV-3
# K562 = system: K562
# SW-620 = system: SW-620
# CAKI-1 = system: CAKI-1
# OVCAR-5 = system: OVCAR-5
# MDA-MB-231 = system: MDA-MB-231
# NCI/ADR-RES = system: NCI/ADR-RES
# PC-3 = system: PC-3
# MDA-MB-435 = system: MDA-MB-435
# SR = system: SR
# MCF7 = system: MCF7
# LOX IMVI = system: LOX IMVI
# BT-549 = system: BT-549
# DU-145 = system: DU-145
# T47D = system: T47D
# SK-MEL-2 = system: SK-MEL-2
# Hs-578T = system: Hs-578T
# RXF 393 = system: RXF 393
# MDA-N = system: MDA-N
smiles,measurement,setting,value
Cc1cccc(C(C)(C)C)c1NC(=O)CCc1n[nH]c(=S)o1,GI50,HCT-15,21.7 µM
same,GI50,Malme-3M,> 100 µM (inactive)
same,GI50,M19-MEL,> 100 µM (inactive)
same,GI50,EKVX,> 100 µM (inactive)
same,GI50,HOP-18,> 100 µM (inactive)
same,GI50,SNB-75,> 100 µM (inactive)
same,GI50,NCI-H522,> 100 µM (inactive)
same,GI50,ACHN,> 100 µM (inactive)
same,GI50,UACC-62,> 100 µM (inactive)
same,GI50,786-0,> 100 µM (inactive)
same,GI50,NCI-H226,0.3 µM (active)
same,GI50,SK-MEL-5,> 100 µM (inactive)
same,GI50,HOP-62,> 100 µM (inactive)
same,GI50,HCT-116,17.6 µM (inactive)
same,GI50,DMS-114,43.3 µM (inactive)
same,GI50,IGROV-1,> 100 µM (inactive)
same,GI50,SN12C,> 100 µM (inactive)
same,GI50,SF-539,> 100 µM (inactive)
same,GI50,COLO 205,16.6 µM (inactive)
same,GI50,KM12,> 100 µM (inactive)
same,GI50,NCI-H23,> 100 µM (inactive)
same,GI50,UO-31,> 100 µM (inactive)
same,GI50,HT-29,> 100 µM (inactive)
same,GI50,OVCAR-8,> 100 µM (inactive)
same,GI50,SNB-78,> 100 µM (inactive)
same,GI50,DMS-273,40.9 µM (inactive)
same,GI50,RPMI-8226,22.8 µM (inactive)
same,GI50,MOLT-4,> 100 µM (inactive)
same,GI50,A498,> 100 µM (inactive)
same,GI50,HOP-92,> 100 µM (inactive)
same,GI50,A549,> 100 µM (inactive)
same,GI50,DLD-1,98.4 µM (inactive)
same,GI50,SF-268,> 100 µM (inactive)
same,GI50,SK-MEL-28,> 100 µM (inactive)
same,GI50,SF-295,> 100 µM (inactive)
same,GI50,OVCAR-4,> 100 µM (inactive)
same,GI50,CCRF-CEM,> 100 µM (inactive)
same,GI50,NCI-H460,> 100 µM (inactive)
same,GI50,M14,> 100 µM (inactive)
same,GI50,HL-60,> 100 µM (inactive)
same,GI50,KM-20L2,> 100 µM (inactive)
same,GI50,SNB-19,> 100 µM (inactive)
same,GI50,OVCAR-3,> 100 µM (inactive)
same,GI50,LXFL 529,> 100 µM (inactive)
same,GI50,U-251,> 100 µM (inactive)
same,GI50,HCC 2998,> 100 µM (inactive)
same,GI50,TK-10,> 100 µM (inactive)
same,GI50,UACC-257,> 100 µM (inactive)
same,GI50,SK-OV-3,> 100 µM (inactive)
same,GI50,K562,43.2 µM (inactive)
same,GI50,SW-620,15.9 µM (inactive)
same,GI50,CAKI-1,> 100 µM (inactive)
same,GI50,OVCAR-5,> 100 µM (inactive)
CS(=O)(=O)CS(=O)(=O)OCCCl,GI50,MDA-MB-231,296 µM (inactive)
same,GI50,HCT-15,209 µM
same,GI50,Malme-3M,356 µM (inactive)
same,GI50,M19-MEL,286 µM (inactive)
same,GI50,EKVX,366 µM (inactive)
same,GI50,HOP-18,438 µM (inactive)
same,GI50,SNB-75,46.8 µM (inactive)
same,GI50,NCI-H522,206 µM (inactive)
same,GI50,ACHN,124 µM (inactive)
same,GI50,UACC-62,29.5 µM (inactive)
same,GI50,NCI/ADR-RES,324 µM (inactive)
same,GI50,PC-3,348 µM (inactive)
same,GI50,786-0,61.2 µM (inactive)
same,GI50,NCI-H226,177 µM (inactive)
same,GI50,SK-MEL-5,211 µM (inactive)
same,GI50,MDA-MB-435,991 µM (inactive)
same,GI50,HOP-62,43.3 µM (inactive)
same,GI50,HCT-116,166 µM (inactive)
same,GI50,DMS-114,86.7 µM (inactive)
same,GI50,IGROV-1,252 µM (inactive)
same,GI50,SN12C,188 µM (inactive)
same,GI50,SF-539,50.4 µM (inactive)
same,GI50,COLO 205,276 µM (inactive)
same,GI50,KM12,339 µM (inactive)
same,GI50,NCI-H23,143 µM (inactive)
same,GI50,UO-31,348 µM (inactive)
same,GI50,HT-29,427 µM (inactive)
same,GI50,OVCAR-8,191 µM (inactive)
same,GI50,SNB-78,96.8 µM (inactive)
same,GI50,DMS-273,236 µM (inactive)
same,GI50,RPMI-8226,198 µM (inactive)
same,GI50,MOLT-4,96.2 µM (inactive)
same,GI50,SR,15.8 µM (inactive)
same,GI50,A498,527 µM (inactive)
same,GI50,MCF7,229 µM (inactive)
same,GI50,HOP-92,119 µM (inactive)
same,GI50,A549,220 µM (inactive)
same,GI50,DLD-1,333 µM (inactive)
same,GI50,SF-268,47.9 µM (inactive)
same,GI50,SK-MEL-28,490 µM (inactive)
same,GI50,LOX IMVI,37.8 µM (inactive)
same,GI50,BT-549,99.5 µM (inactive)
same,GI50,SF-295,60.8 µM (inactive)
same,GI50,OVCAR-4,403 µM (inactive)
same,GI50,CCRF-CEM,47 µM (inactive)
same,GI50,DU-145,199 µM (inactive)
same,GI50,T47D,218 µM (inactive)
same,GI50,NCI-H460,83.6 µM (inactive)
same,GI50,M14,191 µM (inactive)
same,GI50,HL-60,136 µM (inactive)
same,GI50,KM-20L2,565 µM (inactive)
same,GI50,SNB-19,96.4 µM (inactive)
same,GI50,OVCAR-3,264 µM (inactive)
same,GI50,SK-MEL-2,304 µM (inactive)
same,GI50,U-251,72.3 µM (inactive)
same,GI50,HCC 2998,301 µM (inactive)
same,GI50,TK-10,465 µM (inactive)
same,GI50,Hs-578T,272 µM (inactive)
same,GI50,UACC-257,169 µM (inactive)
same,GI50,RXF 393,163 µM (inactive)
same,GI50,SK-OV-3,167 µM (inactive)
same,GI50,K562,216 µM (inactive)
same,GI50,SW-620,115 µM (inactive)
same,GI50,MDA-N,107 µM (inactive)
same,GI50,CAKI-1,207 µM (inactive)
same,GI50,OVCAR-5,621 µM (inactive)
